Test results taken from patent US20260250741A1, “DEVELOPMENT OF CELL MEDIUM AND FEED ON MAMMALIAN CELLS” (Evonik Operations GmbH, priority 2023, published 2026).

Assays:
[1] = test system: Agarabi CHO (ATCC® CRL-3440™); settings: 120 μM added every 48 hrs, 7 day batch culture, CD FortiCHO + 8 mM L-glutamine
Description: For this experiment, a transgenic CHO cell line, Agarabi CHO (ATCC® CRL-3440™), was grown in CD FortiCHO medium supplemented with 8 mM L-glutamine at 37° C., 8% CO2, at a shaking speed of 130 RPM. Batch culture of 6 flasks was maintained for 7 days where 3 flasks represent technical replicates for the control set and 3 flasks represent technical replicates for the treatment set. The flasks were seeded with 3E5 viable cells/mL on day 0 and to induce oxidative stress, hydrogen peroxide was added every 48 hrs to the treatment set with a final concentration of 120 μM. Cell count, cell viability, and heterologous protein production were measured every 2 days and cell pellets were collected for both control and treatment set on day 7.

[2] = test system: Agarabi CHO (ATCC® CRL-3440™); settings: FDR corrected p-value <0.05 and methylation change greater than 25% between groups; cell pellets day 7
Description: Genomic DNA was purified from the collected cell pellets using DNeasy Blood & Tissue Kit (Qiagen) and was quantified using PicroGreen or NanoDrop™ 2000. The genomic DNA (500 ng) from the control and treatment set were used to prepare libraries for Whole Genome Bisulfite Sequencing (WGBS). The sequencing of the libraries was performed by a third party on a NovaSeq platform which generated 125 GB of data per sample.
Raw sequencing data were conducted quality control (fastqc) 1, sequencing adaptors trimming (TrimGalore) 2, and alignment with Bismark3. CMV promoter combined with CHOK1-GS (Cricetulus griseus) genome was used as a reference genome.
Bismark was also used for removing duplicated reads and extracting methylation counts from alignment output.
Since regulated methylation targets are most commonly clustered into short regions, DMRfinder4 was used to perform a modified single-linkage clustering of methylation sites.
Differential methylation analysis was performed using MethylKit5 between the control and treatment groups. Logistic regression was used to determine the differential methylation across all regions, and the sliding linear model (SLIM) 6 method to do FDR correction.

[3] = test system: Agarabi CHO (ATCCR CRL-3440™); assay: Adaptation of CHO cells with media supplement, batch culture (cell count, viability, protein production); format: cell-based, Cricetulus griseus; settings: 1 mg/L, adapted for 2 weeks, 7 day batch culture, CD FortiCHO + 8 mM L-glutamine
Description: For this experiment, a transgenic CHO cell line, Agarabi CHO (ATCCR CRL-3440™), was adapted for 2 weeks in CD FortiCHO medium supplemented with 8 mM L-glutamine & 1 mg/L human insulin-like growth factor 1 (IGF-1) at 37° C., 8% CO2, at a shaking speed of 130 RPM. Batch culture of 6 flasks was maintained for 7 days where 3 flasks represent technical replicates for the control set (without IGF-1 adaptation) and 3 flasks represent technical replicates for the IGF-1 adapted set. The flasks were seeded with 3E5 viable cells/mL on day 0 and 1 mg/L Insulin Growth Factor was added to the adapted set. Cell count, cell viability, and protein production were measured every 2 days and cell pellets were collected for both control and treatment set on day 7.

[4] = test system: Agarabi CHO (ATCCR CRL-3440™); assay: WGBS differential methylation analysis, IGF-1 adapted vs control; format: cell-based, Cricetulus griseus; settings: FDR corrected p-value <0.05 and methylation change greater than 25% between groups; cell pellets day 7
Description: With a maximum distance between CpG sites of 100 bp, 2048904 genomic regions were found for IGF-1 adapted samples.
Regions with FDR corrected p-value <0.05 and methylation change greater than 25% between groups were determined as differentially methylated regions (DMRs), which was 289 for IGF-1 adapted samples listed in Table 2.

Row | Compound | cell viability compared to control set [1] | growth rate compared to control set [1] | heterologous protein productivity compared to control set [1] | number of differentially methylated regions (DMRs) [2] | growth rate compared to control set [3] | heterologous protein productivity compared to control set [3] | viability compared to control set [3] | number of differentially methylated regions (DMRs) [4]
1 | OO [hydrogen peroxide] | reduced | reduced | slight increase | 122 | – | – | – | –
2 | IGF-1: human insulin-like growth factor 1, media supplement for CHO cells | – | – | – | – | no significant effect | doubled | no significant effect | 289
